Measured values reported in ChEMBL document CHEMBL5230146, “Crystal Structures of Metallo-β-Lactamase (IMP-1) and Its D120E Mutant in Complexes with Citrate and the Inhibitory Effect of the Benzyl Group in Citrate Monobenzyl Ester” (J Med Chem, 2021).
Activity calls are given as the source filed them. The calls are words filed in the database; no cut-off is given here.

How the values were obtained:
[1] = target: Metallo-beta-lactamase type 2 (Serratia marcescens) (UniProt P52699); test: Inhibition of Serratia marcescens IMP-1 expressed in Escherichia coli BL21 (DE3) at 5 mM using cephalothin as substrate preincubated for 5 mins followed by substrate addition
Metallo-beta-lactamase type 2 (Serratia marcescens), sequence (P52699 19-246 limits assumed): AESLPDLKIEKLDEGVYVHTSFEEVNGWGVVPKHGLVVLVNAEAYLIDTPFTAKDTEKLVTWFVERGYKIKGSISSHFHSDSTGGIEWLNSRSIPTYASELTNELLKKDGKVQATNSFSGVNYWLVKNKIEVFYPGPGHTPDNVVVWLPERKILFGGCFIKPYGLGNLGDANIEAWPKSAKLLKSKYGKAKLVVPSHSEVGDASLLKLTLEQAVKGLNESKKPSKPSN

[2] = target: Metallo-beta-lactamase type 2 (Serratia marcescens, UniProt P52699); test: Inhibition of Serratia marcescens IMP-1 expressed in Escherichia coli BL21 (DE3) using cephalothin as substrate preincubated for 5 mins followed by substrate addition relative to citrate
Metallo-beta-lactamase type 2, sequence (P52699 whole entry): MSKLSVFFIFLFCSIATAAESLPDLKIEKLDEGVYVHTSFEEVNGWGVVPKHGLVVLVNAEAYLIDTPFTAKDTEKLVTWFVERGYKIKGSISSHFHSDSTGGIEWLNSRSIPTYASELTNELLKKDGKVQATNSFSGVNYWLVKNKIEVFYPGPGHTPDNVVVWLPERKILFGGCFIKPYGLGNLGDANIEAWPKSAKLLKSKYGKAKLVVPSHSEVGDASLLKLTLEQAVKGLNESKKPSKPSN

[3] = target: Metallo-beta-lactamase type 2 (Serratia marcescens) (UniProt P52699); test: Inhibition of Serratia marcescens IMP-1 expressed in Escherichia coli BL21 (DE3) at 5 mM using cephalothin as substrate preincubated for 5 mins followed by substrate addition relative to control

Structure (SMILES) | inhibition [1] | IC50 [2] [mM] | inhibition [3] [%]
O=C(O)CC(O)(CC(=O)O)C(=O)O | inactive |  | 
O=C(O)CC(O)(CC(=O)OCc1ccccc1)C(=O)O (stereo not drawn) |  | > 5 | 30
